# Test results published in PMC8462848, “Quinazolin-4(3H)-one based potential multiple tyrosine kinase inhibitors with excellent cytotoxicity” (Journal of Enzyme Inhibition and Medicinal Chemistry, 2021).
# Tests used:
# [1] = target: T1, VEGFR2 (Homo sapiens, UniProt P35968); test: VEGFR2 kinase assay kit, Kinase-Glo MAX luminescence; format: biochemical; details: for inhibition at 0.01 µM / inhibition at 0.1 µM / inhibition at 1 µM / inhibition at 10 µM: one experimental data, read-out: % Inhibition VEGFR-2; for IC50: mean ± SD of triplicate
# T1 construct: purchased #40325
# T1 sequence (P35968 20-1356): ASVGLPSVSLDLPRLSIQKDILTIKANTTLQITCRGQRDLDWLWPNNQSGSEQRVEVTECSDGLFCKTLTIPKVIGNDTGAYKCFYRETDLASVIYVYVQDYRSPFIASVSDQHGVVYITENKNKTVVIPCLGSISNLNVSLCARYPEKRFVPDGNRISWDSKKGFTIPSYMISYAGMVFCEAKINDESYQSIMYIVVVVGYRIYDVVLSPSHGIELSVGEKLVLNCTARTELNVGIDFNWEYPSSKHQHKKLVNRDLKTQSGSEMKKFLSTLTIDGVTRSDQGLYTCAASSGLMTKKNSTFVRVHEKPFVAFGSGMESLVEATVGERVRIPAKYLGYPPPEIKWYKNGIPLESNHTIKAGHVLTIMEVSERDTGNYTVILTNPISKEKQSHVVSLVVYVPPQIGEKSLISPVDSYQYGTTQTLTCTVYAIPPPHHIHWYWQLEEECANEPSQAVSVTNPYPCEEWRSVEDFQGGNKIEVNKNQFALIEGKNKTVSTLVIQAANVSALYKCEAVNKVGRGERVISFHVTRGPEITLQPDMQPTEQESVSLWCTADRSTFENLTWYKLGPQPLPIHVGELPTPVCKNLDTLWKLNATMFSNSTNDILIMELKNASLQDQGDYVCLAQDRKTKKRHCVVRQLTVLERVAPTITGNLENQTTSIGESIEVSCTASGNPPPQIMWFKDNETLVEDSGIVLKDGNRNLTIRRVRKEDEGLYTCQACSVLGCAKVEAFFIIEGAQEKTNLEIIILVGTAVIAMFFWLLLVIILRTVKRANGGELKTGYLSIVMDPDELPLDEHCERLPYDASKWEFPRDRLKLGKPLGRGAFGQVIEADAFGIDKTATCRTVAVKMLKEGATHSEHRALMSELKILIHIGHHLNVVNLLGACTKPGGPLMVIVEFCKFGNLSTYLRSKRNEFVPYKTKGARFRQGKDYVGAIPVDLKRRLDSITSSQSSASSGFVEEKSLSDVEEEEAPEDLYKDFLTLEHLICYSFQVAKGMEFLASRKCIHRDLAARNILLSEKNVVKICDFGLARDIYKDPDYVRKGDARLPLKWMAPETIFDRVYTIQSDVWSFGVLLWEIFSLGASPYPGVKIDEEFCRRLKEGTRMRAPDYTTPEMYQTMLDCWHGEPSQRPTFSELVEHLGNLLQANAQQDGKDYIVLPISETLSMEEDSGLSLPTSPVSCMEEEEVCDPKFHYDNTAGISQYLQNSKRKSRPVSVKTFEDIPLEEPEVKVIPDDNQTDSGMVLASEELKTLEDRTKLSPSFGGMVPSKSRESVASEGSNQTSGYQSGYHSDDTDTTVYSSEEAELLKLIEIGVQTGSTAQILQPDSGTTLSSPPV
# Description: (§1) The HER2/EGFR/VEGFR2 assay kit is designed to measure HER2/EGFR/VEGFR-2 inhibitory activity for screening and profiling applications, using Kinase-Glo® MAX as a detection reagent. The HER2/EGFR/VEGFR2 assay kit comes in a convenient 96-well format, with enough purified recombinant HER2/EGFR/VEGFR2 enzyme, HER2/EGFR/VEGFR2 substrate, ATP and kinase buffer 1 for 100 enzyme reactions. […] […] The quinazolin-4(3H)-ones were diluted in 10% DMSO and 5 μl of the dilution was added to a 50 μl reaction so that the final concentration of DMSO was 1% in all of the reactions. All of the enzymatic reactions were conducted at 30 °C for 40 min. The 50 μl reaction mixture contained 40 mM Tris, pH 7.4, 10 mM MgCl2, 0.1 mg/mL BSA, 1 mM DTT, 10 mM ATP, kinase substrate and the enzyme HER2 / EGFR / VEGFR2. After the enzymatic reaction, 50 μl of Kinase-Glo® MAX luminescence kinase assay solution was added to each reaction and the plates were incubated for 5 min at room temperature. Luminescence signal was measured using a Bio Tek Synergy 2 microplate reader (For detail enzyme assay protocol and the results, please see supplementary data).
# [2] = target: T2, EGFR (Homo sapiens, UniProt P00533); test: EGFR kinase assay kit, Kinase-Glo MAX luminescence; format: biochemical; details: for inhibition at 0.01 µM / inhibition at 0.1 µM / inhibition at 1 µM / inhibition at 10 µM: one experimental data; for IC50: mean ± SD of triplicate
# T2 construct: purchased #40321
# T2 sequence (P00533 25-1210): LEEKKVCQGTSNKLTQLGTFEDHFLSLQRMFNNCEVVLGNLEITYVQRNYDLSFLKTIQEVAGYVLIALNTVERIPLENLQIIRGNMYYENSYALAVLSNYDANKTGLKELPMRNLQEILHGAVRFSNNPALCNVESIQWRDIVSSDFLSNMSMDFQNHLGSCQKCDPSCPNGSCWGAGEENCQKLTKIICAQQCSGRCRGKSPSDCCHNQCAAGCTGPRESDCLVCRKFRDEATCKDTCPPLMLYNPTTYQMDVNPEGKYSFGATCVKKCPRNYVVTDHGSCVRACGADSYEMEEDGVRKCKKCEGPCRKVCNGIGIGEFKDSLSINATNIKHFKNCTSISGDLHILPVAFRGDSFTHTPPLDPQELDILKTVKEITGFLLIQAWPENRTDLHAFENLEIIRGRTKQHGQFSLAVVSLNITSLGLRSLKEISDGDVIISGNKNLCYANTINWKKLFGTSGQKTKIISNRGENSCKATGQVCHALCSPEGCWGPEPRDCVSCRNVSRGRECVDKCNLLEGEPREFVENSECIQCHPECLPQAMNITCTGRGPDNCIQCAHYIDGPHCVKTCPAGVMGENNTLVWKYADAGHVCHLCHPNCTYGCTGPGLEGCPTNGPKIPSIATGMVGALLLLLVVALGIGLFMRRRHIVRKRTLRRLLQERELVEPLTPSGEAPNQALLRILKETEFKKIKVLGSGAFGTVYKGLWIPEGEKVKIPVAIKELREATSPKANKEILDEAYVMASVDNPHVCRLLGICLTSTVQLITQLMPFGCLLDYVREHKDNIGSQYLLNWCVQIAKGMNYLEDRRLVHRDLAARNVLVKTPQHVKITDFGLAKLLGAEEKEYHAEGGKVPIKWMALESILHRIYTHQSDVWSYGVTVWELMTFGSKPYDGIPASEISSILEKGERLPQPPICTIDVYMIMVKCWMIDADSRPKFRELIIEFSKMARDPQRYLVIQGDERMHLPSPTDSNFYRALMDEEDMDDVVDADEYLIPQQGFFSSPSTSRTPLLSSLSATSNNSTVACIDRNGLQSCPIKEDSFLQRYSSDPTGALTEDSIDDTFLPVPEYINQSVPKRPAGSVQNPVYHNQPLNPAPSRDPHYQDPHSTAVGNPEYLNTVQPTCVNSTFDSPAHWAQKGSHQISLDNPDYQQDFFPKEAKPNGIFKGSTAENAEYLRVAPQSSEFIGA
# Description: as §1
# [3] = target: T3, HER2 (Homo sapiens, UniProt P04626); test: HER2 kinase assay kit, Kinase-Glo MAX luminescence; format: biochemical; details: for inhibition at 0.01 µM / inhibition at 0.1 µM / inhibition at 1 µM / inhibition at 10 µM: one experimental data; for IC50: mean ± SD of triplicate
# T3 construct: purchased #40721
# T3 sequence (P04626 23-1255): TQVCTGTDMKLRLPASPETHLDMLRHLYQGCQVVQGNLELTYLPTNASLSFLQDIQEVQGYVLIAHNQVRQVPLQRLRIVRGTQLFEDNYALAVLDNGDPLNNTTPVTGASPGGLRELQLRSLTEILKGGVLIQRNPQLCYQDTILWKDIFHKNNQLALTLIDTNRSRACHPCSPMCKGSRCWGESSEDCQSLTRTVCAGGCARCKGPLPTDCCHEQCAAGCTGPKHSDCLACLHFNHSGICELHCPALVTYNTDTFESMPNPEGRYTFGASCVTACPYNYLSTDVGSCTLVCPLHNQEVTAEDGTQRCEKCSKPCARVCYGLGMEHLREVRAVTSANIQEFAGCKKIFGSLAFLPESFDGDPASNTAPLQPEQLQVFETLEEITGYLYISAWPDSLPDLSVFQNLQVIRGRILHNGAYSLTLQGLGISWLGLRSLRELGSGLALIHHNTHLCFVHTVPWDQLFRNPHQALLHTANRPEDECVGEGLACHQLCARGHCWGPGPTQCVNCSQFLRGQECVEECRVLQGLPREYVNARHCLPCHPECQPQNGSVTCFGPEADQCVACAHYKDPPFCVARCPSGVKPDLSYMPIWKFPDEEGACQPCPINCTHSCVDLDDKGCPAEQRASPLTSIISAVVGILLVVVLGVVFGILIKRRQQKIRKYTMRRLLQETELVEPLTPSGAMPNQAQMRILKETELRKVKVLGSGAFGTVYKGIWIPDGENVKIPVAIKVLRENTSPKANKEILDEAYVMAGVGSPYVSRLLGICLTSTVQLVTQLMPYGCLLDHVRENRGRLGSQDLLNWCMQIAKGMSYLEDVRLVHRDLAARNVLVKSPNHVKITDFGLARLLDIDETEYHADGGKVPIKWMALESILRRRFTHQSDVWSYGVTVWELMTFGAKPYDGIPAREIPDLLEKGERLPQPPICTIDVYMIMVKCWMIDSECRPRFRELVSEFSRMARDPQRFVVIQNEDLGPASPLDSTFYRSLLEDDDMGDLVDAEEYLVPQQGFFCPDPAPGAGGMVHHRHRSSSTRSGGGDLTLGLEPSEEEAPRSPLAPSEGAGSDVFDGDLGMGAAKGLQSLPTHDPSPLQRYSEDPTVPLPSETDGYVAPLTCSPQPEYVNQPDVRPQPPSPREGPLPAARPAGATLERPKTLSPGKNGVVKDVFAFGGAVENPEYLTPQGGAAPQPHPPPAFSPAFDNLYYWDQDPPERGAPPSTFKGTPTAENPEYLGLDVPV
# Description: as §1
# [4] = target: T4, CDK2/CyclinA2 (Homo sapiens, UniProt P24941); test: CDK2 Assay Kit, Kinase-Glo MAX luminescence; format: biochemical; details: mean ± SD of triplicate
# T4 construct: purchased #79599
# [5] = target: T4, CDK2/CyclinA2; test: CDK2 Assay Kit, Kinase-Glo MAX luminescence; format: biochemical; details: one experimental data
# Description: The CDK2 Assay Kit is designed to measure CDK2/CyclinA2 activity for screening and profiling applications, using Kinase-Glo® MAX as a detection reagent. The CDK2 Assay Kit comes in a convenient 96-well format, with enough purified recombinant CDK2/CyclinA2 enzyme, CDK substrate peptide, ATP and kinase assay buffer for 100 enzyme reactions. […] […] The compounds were diluted in 10% DMSO and 5 μl of the dilution was added to a 50 μl reaction so that the final concentration of DMSO was 1% in all of the reactions. All of the enzymatic reactions were conducted at 30 °C for 40 min. The 50 μl reaction mixture contained 40 mM Tris, pH 7.4, 10 mM MgCl2, 0.1 mg/mL BSA, 1 mM DTT, 10 mM ATP, Kinase substrate and the enzyme (CDK2/CyclinA2). After the enzymatic reaction, 50 μl of Kinase-Glo® MAX Luminescence kinase assay solution was added to each reaction and the plates were incubated for 5 min at room temperature. Luminescence signal was measured using a Bio Tek Synergy 2 microplate reader.
# Figure S1. Calculation of the IC20 Values of Protein Kinase Enzyme CDK2 for 2f
# * All the kinase IC20 (µM) were calculated according to the above equations.
# (1 picture or pasted object on this page, not shown here)
# [6] = system: A2780 (human ovary adenocarcinoma) cells; test: MTT cytotoxicity assay, A2780; format: cell-based
# Description: (§2) The cytotoxicity of the synthesised quinazolin-4(3H)-ones was evaluated by MTT assay, as previously described. Two cancer cell lines, MCF7 (human breast adenocarcinoma) and A2780 (human ovary adenocarcinoma), were used in this study, which were obtained from the ATCC (Rockville, MD, USA). […] Additionally, compounds were prepared at the same medium to obtain serial dilutions (50, 25, […] and 0.1 µM). […] The media were aspirated, and the formazan crystals were solubilised by adding 150 µL DMSO. Absorbance was read on a multi-plate reader (BioRad) at […]. […] The data were obtained from triplicates and analysed using statistical software.
# [7] = system: MCF7 (human breast adenocarcinoma) cells; test: MTT cytotoxicity assay, MCF7; format: cell-based
# Description: as §2
# [8] = Homo sapiens, A2780, mean ± SD of triplicate
# [9] = Homo sapiens, MCF7, mean ± SD of triplicate
compound,measurement,setting,value
"NNC(=O)CSc1nc2ccc(F)cc2c(=O)n1Cc1ccccc1 [3g, 2-((3-Benzyl-6-fluoro-4-oxo-3,4-dihydroquinazolin-2-yl)thio)acetohydrazide]",inhibition at 0.01 µM,[1],3.73%
same,inhibition at 0.1 µM,[1],40.9%
same,inhibition at 1 µM,[1],71.9%
same,inhibition at 10 µM,[1],90.3%
same,IC50,[1],294 ± 11 nM
same,inhibition at 0.01 µM,[2],11.7%
same,inhibition at 0.1 µM,[2],40.3%
same,inhibition at 1 µM,[2],81.3%
same,inhibition at 10 µM,[2],94%
same,IC50,[2],221 ± 14 nM
same,inhibition at 0.01 µM,[3],23.4%
same,inhibition at 0.1 µM,[3],23.4%
same,inhibition at 1 µM,[3],83.8%
same,inhibition at 10 µM,[3],94.8%
same,IC50,[3],112 ± 16 nM
same,IC50,[4],207 ± 17 nM
same,inhibition at 0.01 µM,[5],14.9%
same,inhibition at 0.1 µM,[5],47.1%
same,inhibition at 1 µM,[5],74.1%
same,inhibition at 10 µM,[5],89%
"COc1cc2nc(SCC(=O)NN)n(Cc3ccccc3)c(=O)c2cc1OC [3i, 2-((3-Benzyl-6,7-dimethoxy-4-oxo-3,4-dihydroquinazolin-2-yl)thio)acetohydrazide]",inhibition at 0.01 µM,[1],10.2%
same,inhibition at 0.1 µM,[1],33.5%
same,inhibition at 1 µM,[1],37.2%
same,inhibition at 10 µM,[1],89.4%
same,IC50,[1],257 ± 23 nM
same,inhibition at 0.01 µM,[2],3.38%
same,inhibition at 0.1 µM,[2],41.2%
same,inhibition at 1 µM,[2],77.2%
same,inhibition at 10 µM,[2],92.4%
same,IC50,[2],181 ± 11 nM
same,IC50,[6]; [8],1360 ± 70 nM
same,inhibition at 0.01 µM,[3],17.9%
same,inhibition at 0.1 µM,[3],20.3%
same,inhibition at 1 µM,[3],84.3%
same,inhibition at 10 µM,[3],94.8%
same,IC50,[3],79 ± 15 nM
same,IC50,[4],177 ± 32 nM
same,inhibition at 0.01 µM,[5],10.3%
same,inhibition at 0.1 µM,[5],44.3%
same,inhibition at 1 µM,[5],72.1%
same,inhibition at 10 µM,[5],90.4%
same,IC50,[7]; [9],560 ± 310 nM
"NNC(=O)CSc1nc2ccc(Cl)cc2c(=O)n1Cc1ccccc1 [3f, 2-((3-Benzyl-6-chloro-4-oxo-3,4-dihydroquinazolin-2-yl)thio)acetohydrazide]",inhibition at 0.01 µM,[1],3.71%
same,inhibition at 0.1 µM,[1],29.8%
same,inhibition at 1 µM,[1],23.4%
same,inhibition at 10 µM,[1],79.3%
same,IC50,[1],651 ± 14 nM
same,inhibition at 0.01 µM,[2],3.31%
same,inhibition at 0.1 µM,[2],31.3%
same,inhibition at 1 µM,[2],31.4%
same,inhibition at 10 µM,[2],84.8%
same,IC50,[2],440 ± 15 nM
same,melting point,,151 to 152 °C
same,IC50,[6]; [8],1540 ± 600 nM
same,inhibition at 0.01 µM,[3],17.3%
same,inhibition at 0.1 µM,[3],47.8%
same,inhibition at 1 µM,[3],82.2%
same,inhibition at 10 µM,[3],90.2%
same,IC50,[3],132 ± 14 nM
same,IC50,[4],420 ± 13 nM
same,inhibition at 0.01 µM,[5],2.23%
same,inhibition at 0.1 µM,[5],34.7%
same,inhibition at 1 µM,[5],33.3%
same,inhibition at 10 µM,[5],81%
same,IC50,[7]; [9],340 ± 110 nM
"NNC(=O)CSc1nc2ccc(Cl)cc2c(=O)n1-c1ccccc1 [3a, 2-((6-Chloro-4-oxo-3-phenyl-3,4-dihydroquinazolin-2-yl)thio)acetohydrazide]",melting point,,181 to 183 °C
same,IC50,[6]; [8],3000 ± 1200 nM
same,IC50,[7]; [9],200 ± 20 nM
"NNC(=O)CSc1nc2ccc(F)cc2c(=O)n1-c1ccccc1 [3b, 2-((6-Fluoro-4-oxo-3-phenyl-3,4-dihydroquinazolin-2-yl)thio)acetohydrazide]",melting point,,192 to 194 °C
same,IC50,[6]; [8],300 ± 60 nM
same,IC50,[7]; [9],1320 ± 120 nM
"CS(=O)(=O)CCNCc1ccc(-c2ccc3ncnc(Nc4ccc(OCc5cccc(F)c5)c(Cl)c4)c3c2)o1 [lapatinib, reference compound]",IC50,[6]; [8],11100 ± 1030 nM
same,IC50,[6]; mean ± SD of triplicate,12100 ± 1030 nM
same,inhibition at 0.01 µM,[3],23.3%
same,inhibition at 0.1 µM,[3],23.2%
same,inhibition at 1 µM,[3],84.3%
same,inhibition at 10 µM,[3],92.2%
same,IC50,[7]; [9],5900 ± 740 nM
"CCOC(=O)CSc1nc2cc(OC)c(OC)cc2c(=O)n1-c1ccccc1 [2d, Ethyl 2-((6,7-dimethoxy-4-oxo-3-phenyl-3,4-dihydroquinazolin-2-yl)thio)acetate]",melting point,,145 to 146 °C
same,IC50,[6]; [8],1230 ± 100 nM
same,IC50,[7]; [9],1560 ± 20 nM
"NNC(=O)CSc1nc2c(F)cc(F)cc2c(=O)n1-c1ccccc1 [3c, 2-((6,8-Difluoro-4-oxo-3-phenyl-3,4-dihydroquinazolin-2-yl)thio)acetohydrazide]",melting point,,201 to 203 °C
same,IC50,[6]; [8],1210 ± 10 nM
same,IC50,[7]; [9],330 ± 30 nM
"2-((5-Chloro-6-methyl-4-oxo-3-phenyl-3,4-dihydroquinazolin-2-yl)thio)acetohydrazide [3e]",IC50,[6]; mean ± SD of triplicate,920 ± 110 nM
same,IC50,[7]; mean ± SD of triplicate,740 ± 230 nM
"COc1cc2nc(SCC(=O)NN)n(-c3ccccc3)c(=O)c2cc1OC [3d, 2-((6,7-Dimethoxy-4-oxo-3-phenyl-3,4-dihydroquinazolin-2-yl)thio)acetohydrazide]",melting point,,166 to 168 °C
same,IC50,[6]; [8],770 ± 660 nM
same,IC50,[7]; [9],500 ± 290 nM
"CCOC(=O)CSc1nc2ccc(Cl)cc2c(=O)n1-c1ccccc1 [2a, Ethyl 2-((6-chloro-4-oxo-3-phenyl-3,4-dihydroquinazolin-2-yl)thio)acetate]",melting point,,85 to 87 °C
same,IC50,[6]; [8],2050 ± 640 nM
same,IC50,[7]; [9],1500 ± 10 nM
"CCOC(=O)CSc1nc2ccc(F)cc2c(=O)n1-c1ccccc1 [2b, Ethyl 2-((6-fluoro-4-oxo-3-phenyl-3,4-dihydroquinazolin-2-yl)thio)acetate]",melting point,,124 to 127 °C
same,IC50,[6]; [8],2980 ± 300 nM
same,IC50,[7]; [9],15720 ± 70 nM
"Ethyl 2-((5-chloro-6-methyl-4-oxo-3-phenyl-3,4-dihydroquinazolin-2-yl)thio)acetate [2e]",IC50,[6]; mean ± SD of triplicate,16400 ± 1800 nM
same,IC50,[7]; mean ± SD of triplicate,14900 ± 990 nM
"CCOC(=O)CSc1nc2c(F)cc(F)cc2c(=O)n1-c1ccccc1 [2c, Ethyl 2-((6,8-difluoro-4-oxo-3-phenyl-3,4-dihydroquinazolin-2-yl)thio)acetate]",melting point,,151 to 153 °C
same,IC50,[6]; [8],490 ± 50 nM
same,IC50,[7]; [9],730 ± 180 nM
